In one test the target is T1, “DKT”-IMPDH-II (Homo sapiens, UniProt P12268, DEL111-240/K241D/Q243T).
T1 construct: The full-length, human, type II impdh cDNAs were used as templates; made in house; host or cells: E. coli BL21(DE3), pET24a
As to the kind of experiment: Steady state enzyme kinetics: inhibition of IMPDH-DKT by XMP and MPA. Format: biochemical. Particulars: for Inhibition type: steady state kinetics.

For test [1], the system named is conversion of NAD to NADH in the presence of IMP. Briefly: Functional activity of modified IMPDH multimers: conversion of NAD to NADH measured spectrophotometrically at 340 nm. The format is biochemical, human. Particulars: partially purified protein, 0.40 mM IMP, 0.40 mM NAD, 37° C. As to the method: Polypeptides of the modified IMPDH-DKT, -SPS, -SPT, and -AGRP were isolated and partially purified using a blue dye affinity chromatographic step. All steps were performed at 4° C. unless otherwise noted. The frozen cell pellets (e.g., described in Example 1) were thawed on ice, and resuspended in 10 mL of Buffer A (25 mM Tris, pH 8.2, 20 mM KCl, 10% glycerol (v/v), 1 mM EDTA, 5 mM DTT, and 1 μg/mL leupeptin). The cells were lysed by 2×20 second sonication pulses using a ¼″ Microtip on a Branson model 450 sonifier (set on 2.5 power setting), and excessive foaming was carefully avoided. […] The samples were evaluated for the presence of the modified IMPDH polypeptides and to approximate the purity using standard SDS-PAGE methods, with Coomassie blue staining. For each of the modified IMPDH polypeptides, it was determined that the purity of the Buffer C fractions contained approximately 75% modified IMPDH polypeptide. The total protein content was quantitated using the Bradford assay method (Bradford, M. M., 1976, Anal. Biochem., 72: 248), with Biorad protein reagent (product #500-0006) and using BSA as a protein standard.
To evaluate the functional activity of the modified IMPDH polypeptides, the conversion of NAD to NADH was measured spectrophotometrically at 340 nm, 37° C. […] The production of NADH was determined by δOD^340 (ε=6220 M^−1 cm^−1), measured for 5 min. […]

As a reminder, the Ki is a dissociation constant, usually derived from enzyme kinetics or from competition with a known ligand.

T1 sequence (P12268 with tags, fused parts or gaps DEL111-240/K241D/Q243T): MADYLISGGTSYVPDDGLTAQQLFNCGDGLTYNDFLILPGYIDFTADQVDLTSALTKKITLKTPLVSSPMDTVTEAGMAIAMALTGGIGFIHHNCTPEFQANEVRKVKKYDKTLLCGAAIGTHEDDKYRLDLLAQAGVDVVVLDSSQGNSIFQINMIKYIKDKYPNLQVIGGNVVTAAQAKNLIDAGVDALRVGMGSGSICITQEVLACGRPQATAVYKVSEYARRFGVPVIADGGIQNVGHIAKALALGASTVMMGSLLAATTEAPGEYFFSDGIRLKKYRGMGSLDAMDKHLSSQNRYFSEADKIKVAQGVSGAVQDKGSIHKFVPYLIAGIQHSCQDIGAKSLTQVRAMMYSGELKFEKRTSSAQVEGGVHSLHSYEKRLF

For `COc1c(C)c2c(c(O)c1C/C=C(\C)CCC(=O)O)C(=O)OC2` [MPA, Mycophenolic acid], the Inhibition type result at “DKT”-IMPDH-II is on record as “Uncompetitive vs. IMP”. On “DKT”-IMPDH-II (buffer D, 50 nM protein), `O=c1[nH]c(=O)c2ncn([C@@H]3O[C@H](COP(=O)(O)O)[C@@H](O)[C@H]3O)c2[nH]1` [XMP, xanthosine-5′-monophosphate] registered a Ki of 67 ± 5 µM. Besides, the Inhibition type entry at “DKT”-IMPDH-II is “Competitive vs. IMP”.

Turning to “wild-type IMPDH holoenzyme: wild-type human type II IMPDH holo-enzyme, SEQ ID NO:49 [reference compound]”, the NADH produced entry in test [1] is given as “approximately 1.00 μmoles/min mg protein”.
